From BindingDB's records for doi:10.7270/Q2NZ862K (Nmmlsc, 2007) come the findings set out here.

Some results are limits rather than exact numbers.

This assay concerns the target T1, fMet-Leu-Phe receptor (Homo sapiens, UniProt P21462).
T1 sequence (P21462 whole entry): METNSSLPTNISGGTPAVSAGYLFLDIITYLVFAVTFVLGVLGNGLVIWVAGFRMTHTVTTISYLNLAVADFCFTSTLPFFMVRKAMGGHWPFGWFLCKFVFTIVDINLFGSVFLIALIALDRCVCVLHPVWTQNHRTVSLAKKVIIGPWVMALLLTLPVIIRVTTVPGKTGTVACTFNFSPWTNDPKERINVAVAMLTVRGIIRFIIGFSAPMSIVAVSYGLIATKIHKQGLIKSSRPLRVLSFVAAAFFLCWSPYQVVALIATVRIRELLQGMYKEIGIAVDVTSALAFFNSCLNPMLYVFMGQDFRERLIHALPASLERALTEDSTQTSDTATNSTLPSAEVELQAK
As to the kind of experiment: formyl peptide receptor binders – dose response (AID 519).

As to `COC(=O)Cc1n[nH]c2c1C(C1C=CCCC1)C(C#N)C(=N)O2` (configuration not stated) [2-[6-amino-5-cyano-4-(1-cyclohex-2-enyl)-2,4-dihydropyrano[2,3-c]pyrazol-3-yl]acetic acid methyl ester], the inhibition constant Ki was more than 43.7 µM.

For the compound `COc1ccc(C2C(C(=O)c3ccco3)C(=O)C(=O)N2CCc2ccccc2)cc1OC` (configuration not stated) [2-(3,4-dimethoxyphenyl)-3-(furan-2-carbonyl)-4-hydroxy-1-(2-phenylethyl)-2H-pyrrol-5-one], the inhibition constant (Ki) was 24.1 µM.

`Cc1ccc(C(=O)C2C(=O)C(=O)N(CCCn3ccnc3)C2c2ccc(OC(C)C)cc2)o1` (configuration not stated) [1-(3-imidazol-1-ylpropyl)-3-(5-methylfuran-2-yl)carbonyl-4-oxidanyl-2-(4-propan-2-yloxyphenyl)-2H-pyrrol-5-one] showed a Ki of more than 43.7 µM.

As for `Cc1nc(C)c(C(=O)C2C(=O)C(=O)N(CCCn3ccnc3)C2c2ccc(Cl)cc2)s1` (configuration not stated) [2-(4-chlorophenyl)-3-(2,4-dimethyl-1,3-thiazole-5-carbonyl)-4-hydroxy-1-(3-imidazol-1-ylpropyl)-2H-pyrrol-5-one], the Ki is more than 43.7 µM.

Turning to `Cc1nc2c(C)cccn2c1C(=O)C1C(=O)C(=O)N(CCN2CCOCC2)C1c1cccs1` (configuration not stated) [(4E)-4-[(2,8-dimethyl-3-imidazo[1,2-a]pyridinyl)-hydroxymethylidene]-1-[2-(4-morpholinyl)ethyl]-5-thiophen-2-ylpyrrolidine-2,3-dione], the Ki was more than 43.7 µM.

Turning to `COc1cc(C2C(C(=O)c3ccc(C)o3)C(=O)C(=O)N2CCc2ccccc2)ccc1O` (configuration not stated) [2-(3-methoxy-4-oxidanyl-phenyl)-3-(5-methylfuran-2-yl)carbonyl-4-oxidanyl-1-(2-phenylethyl)-2H-pyrrol-5-one], the Ki came out at 12.9 µM.

In turn, `COCCN1C(=O)C(=O)C(C(=O)c2ccco2)C1c1cccc(Oc2ccccc2)c1` (configuration not stated) [3-(furan-2-carbonyl)-4-hydroxy-1-(2-methoxyethyl)-2-(3-phenoxyphenyl)-2H-pyrrol-5-one] registered a Ki of 36.7 µM.

Turning to `O=C1C(=O)N(c2ncccn2)C(c2ccc(Cl)c(Cl)c2)C1C(=O)c1ccco1` (configuration not stated) [2-(3,4-dichlorophenyl)-3-(furan-2-carbonyl)-4-hydroxy-1-pyrimidin-2-yl-2H-pyrrol-5-one], the inhibition constant Ki was more than 43.7 µM.

Take `O=C1C(=O)N(c2ncccn2)C(c2ccc(Cl)cc2)C1C(=O)c1ccco1` (configuration not stated) [2-(4-chlorophenyl)-3-(furan-2-carbonyl)-4-hydroxy-1-pyrimidin-2-yl-2H-pyrrol-5-one]: the Ki was more than 43.7 µM.

As to `COc1ccc(OC)c(C2C(C(=O)c3cc4ccccc4o3)C(=O)C(=O)N2c2cc(C)on2)c1` (configuration not stated) [3-(1-benzofuran-2-carbonyl)-2-(2,5-dimethoxyphenyl)-4-hydroxy-1-(5-methyl-1,2-oxazol-3-yl)-2H-pyrrol-5-one], the Ki was determined as 23.9 µM.

Compound `COc1cccc(OC)c1C(=O)C(C#N)c1nc2ccccc2[nH]1` (configuration not stated) [SMR000024183] showed a Ki of more than 43.7 µM.

Compound `COc1cc(C2C(C(=O)c3ccc(C)o3)C(=O)C(=O)N2Cc2cccnc2)ccc1O` (configuration not stated) [2-(3-methoxy-4-oxidanyl-phenyl)-3-(5-methylfuran-2-yl)carbonyl-4-oxidanyl-1-(pyridin-3-ylmethyl)-2H-pyrrol-5-one] returned an inhibition constant Ki of more than 43.7 µM.

Regarding `COc1cccc(C(=O)C2C(=O)C(=O)N(Cc3cccnc3)C2c2ccco2)c1` (configuration not stated) [(4Z)-5-(2-furanyl)-4-[hydroxy-(3-methoxyphenyl)methylidene]-1-(3-pyridinylmethyl)pyrrolidine-2,3-dione], the Ki was more than 43.7 µM.

With `COc1ccccc1C1C(C(=O)c2ccccc2)C(=O)C(=O)N1CCO` (configuration not stated) [(4Z)-1-(2-hydroxyethyl)-4-[hydroxy(phenyl)methylene]-5-(2-methoxyphenyl)pyrrolidine-2,3-quinone], the Ki stood at 12.9 µM.

In turn, `COc1ccc(C(=O)C2C(=O)C(=O)N(c3nc(C)c(C)s3)C2c2ccco2)cc1` (configuration not stated) [(4Z)-1-(4,5-dimethyl-1,3-thiazol-2-yl)-5-(furan-2-yl)-4-[(4-methoxyphenyl)-oxidanyl-methylidene]pyrrolidine-2,3-dione] yielded an inhibition constant (Ki) of more than 43.7 µM.

`O=C1C(=O)N(Cc2ccco2)C(c2ccccc2)C1C(=O)c1cccs1` (configuration not stated) [1-(2-furanylmethyl)-4-hydroxy-3-[oxo(thiophen-2-yl)methyl]-2-phenyl-2H-pyrrol-5-one]: the affinity, expressed as Ki, was 23 µM.

As for `COc1ccc(OC)c(C2C(C(=O)c3ccco3)C(=O)C(=O)N2CCCN2CCOCC2)c1` (configuration not stated) [2-(2,5-dimethoxyphenyl)-3-(furan-2-carbonyl)-4-hydroxy-1-(3-morpholin-4-ylpropyl)-2H-pyrrol-5-one], the inhibition constant (Ki) was 17.3 µM.

Compound `Cc1ccc(C2C(C(=O)c3cnn(-c4ccccc4)c3C)C(=O)C(=O)N2CCN2CCOCC2)o1` (configuration not stated) [(4Z)-4-[hydroxy-(5-methyl-1-phenyl-4-pyrazolyl)methylidene]-5-(5-methyl-2-furanyl)-1-[2-(4-morpholinyl)ethyl]pyrrolidine-2,3-dione] showed a Ki of 15.2 µM.

Compound `Cc1ccc(C)c(C(=O)C2C(=O)C(=O)N(CCCn3ccnc3)C2c2ccncc2)c1` (configuration not stated) [(4E)-4-[(2,5-dimethylphenyl)-hydroxy-methylene]-1-(3-imidazol-1-ylpropyl)-5-(4-pyridyl)pyrrolidine-2,3-quinone] yielded a Ki of more than 43.7 µM.

Compound `CCOc1cc(C2C(C(=O)c3ccco3)C(=O)C(=O)N2CCc2ccccc2)ccc1O` (configuration not stated) [2-(3-ethoxy-4-hydroxyphenyl)-3-(furan-2-carbonyl)-4-hydroxy-1-(2-phenylethyl)-2H-pyrrol-5-one] gave a Ki of more than 43.7 µM.

As for `Cc1ccc(C(=O)C2C(=O)C(=O)N(Cc3ccccc3)C2c2cccnc2)o1` (configuration not stated) [1-benzyl-3-hydroxy-4-[(5-methylfuran-2-yl)carbonyl]-5-(pyridin-3-yl)-2,5-dihydro-1H-pyrrol-2-one], the inhibition constant (Ki) was more than 43.7 µM.

Consider `CCCOc1ccc(C2C(C(=O)c3ccc(C)o3)C(=O)C(=O)N2CCCn2ccnc2)cc1` (configuration not stated) [1-(3-imidazol-1-ylpropyl)-3-(5-methylfuran-2-yl)carbonyl-4-oxidanyl-2-(4-propoxyphenyl)-2H-pyrrol-5-one], for which the affinity, expressed as Ki, was 9 µM.

`COC(=O)c1[nH]c(C)c(C(=O)C2C(=O)C(=O)N(CCN3CCOCC3)C2c2cccs2)c1C` (configuration not stated) came in with a Ki of 3.3 µM.

As for `CSCCC1c2c(-c3cccs3)n[nH]c2OC(=N)C1C#N` (configuration not stated) [6-azanyl-4-(2-methylsulfanylethyl)-3-thiophen-2-yl-2,4-dihydropyrano[2,3-c]pyrazole-5-carbonitrile], the Ki was more than 43.7 µM.

For `COCCCN1C(=O)C(=O)C(C(=O)c2ccc(OC)cc2C)C1c1cccnc1` (configuration not stated) [(4E)-4-[(4-methoxy-2-methyl-phenyl)-oxidanyl-methylidene]-1-(3-methoxypropyl)-5-pyridin-3-yl-pyrrolidine-2,3-dione], the Ki was more than 43.7 µM.

Turning to `COc1ccc(C(=O)C2C(=O)C(=O)N(Cc3ccco3)C2c2ccc(OC)cc2OC)cc1` (configuration not stated) [(4E)-5-(2,4-dimethoxyphenyl)-1-(2-furanylmethyl)-4-[hydroxy-(4-methoxyphenyl)methylidene]pyrrolidine-2,3-dione], the Ki is more than 43.7 µM.

As for `O=C1C(=O)N(CCOCCO)C(c2cccs2)C1C(=O)c1cccs1` (configuration not stated) [1-[2-(2-hydroxyethyloxy)ethyl]-4-oxidanyl-2-thiophen-2-yl-3-thiophen-2-ylcarbonyl-2H-pyrrol-5-one], the inhibition constant Ki is 14 µM.

`COCCCN1C(=O)C(=O)C(C(=O)c2ccco2)C1c1ccccc1` (configuration not stated) [3-(furan-2-carbonyl)-4-hydroxy-1-(3-methoxypropyl)-2-phenyl-2H-pyrrol-5-one] gave an inhibition constant (Ki) of 9.5 µM.

For `COCCN1C(=O)C(=O)C(C(=O)c2cccs2)C1c1ccccc1` (configuration not stated) [1-(2-methoxyethyl)-4-oxidanyl-2-phenyl-3-thiophen-2-ylcarbonyl-2H-pyrrol-5-one], the Ki is more than 43.7 µM.

`Cc1ccc(C2c3c([nH]c(=S)[nH]c3=O)N=C3CC(C)(C)CC(=O)C32)cc1` (configuration not stated) [8,8-dimethyl-5-(4-methylphenyl)-2-sulfanylidene-5,7,9,10-tetrahydro-1H-pyrimido[4,5-b]quinoline-4,6-dione] registered a Ki of 31.4 µM.

Consider `Cc1ccsc1C1C2C(=O)CC(C)(C)CC2=Nc2ncnn21` (configuration not stated) [6,6-dimethyl-9-(3-methyl-2-thienyl)-1,5,7,9-tetrahydro-[1,2,4]triazolo[5,1-b]quinazolin-8-one], for which the inhibition constant (Ki) was found to be 8.2 µM.

With `Cc1ccc(C(=O)C2C(=O)C(=O)N(CC(C)O)C2c2ccc(N(C)C)cc2)cc1` (configuration not stated) [(4E)-5-[4-(dimethylamino)phenyl]-1-(2-hydroxypropyl)-4-[hydroxy(p-tolyl)methylene]pyrrolidine-2,3-quinone], the Ki is more than 43.7 µM.

Take `CCOc1cc(C2C(C(=O)c3ccc(C)o3)C(=O)C(=O)N2CCc2ccccc2)ccc1O` (configuration not stated) [2-(3-ethoxy-4-hydroxyphenyl)-4-hydroxy-3-(5-methylfuran-2-carbonyl)-1-(2-phenylethyl)-2H-pyrrol-5-one]: the Ki amounted to 19.9 µM.

As for `CCOc1cccc(C(=O)C2C(=O)C(=O)N(Cc3cccnc3)C2c2ccco2)c1` (configuration not stated) [(4Z)-4-[(3-ethoxyphenyl)-hydroxymethylidene]-5-(2-furanyl)-1-(3-pyridinylmethyl)pyrrolidine-2,3-dione], the inhibitory constant (Ki) is more than 43.7 µM.

With `COCc1cc(C2C(C(=O)c3ccco3)C(=O)C(=O)N2CCOCCO)ccc1O` (configuration not stated) [3-(furan-2-carbonyl)-4-hydroxy-1-[2-(2-hydroxyethoxy)ethyl]-2-[4-hydroxy-3-(methoxymethyl)phenyl]-2H-pyrrol-5-one], the Ki was determined as 19.4 µM.

`COc1cc(-n2nc(C)c3c2OC(=N)C(C#N)C3c2ccccc2)c(Cl)c(Br)c1O` (configuration not stated) [6-amino-1-(3-bromo-2-chloro-4-hydroxy-5-methoxyphenyl)-3-methyl-4-phenyl-1,4-dihydropyrano[2,3-c]pyrazole-5-carbonitrile] returned an inhibition constant Ki of 21.3 µM.

In turn, `CCCCc1c(O)n(-c2ccccc2)n(-c2ccccc2)c1=O` [3,5-Dioxo-1,2-diphenyl-4-n-butylpyrazolidine] displayed a Ki of 3.5 µM.
